A value given as a limit tells only on which side of the number the result lay.

Broadly, the inhibition is how much of the control response was suppressed.

What all share (assay type): biochemical
The target of one assay is T1, c-Src kinase (Homo sapiens, UniProt P12931).
T1 construct: purchased Millipore (KinaseProfiler Service) / Reaction Biology Corp. (Kinase Hotspot)
In words: c-Src kinase assay (KinaseProfiler / Kinase Hotspot). Conditions: compound at 1 μM; read-out: % Inhibition @1 μM cSrc. The procedure: (§1) This example illustrated c-Src kinase, Aurora-A kinase, Flt3 kinase, Ret kinase and TrkA Kinase Assays of selected Compounds from this invention (referred to Daniele Fancelli et al, J. Med. Chem., 2006, 49 (24), pp 7247-7251). The KinaseProfiler™ Service Assay Protocols (Millipore) were used to test the kinase inhibiting activity of novel compounds from this invention. To do this, the buffer composition was as: 20 mM MOPS, 1 mM EDTA, 0.01% Brij-35, 5% Glycerol, 0.1% […], 1 mg/mL BSA. Test compounds were initially dissolved in DMSO at the desired concentration, then serially diluted to the kinase assay buffer. In a final reaction volume of 25 μL, Aurora-A(h) (5-10 mU) is incubated with 8 mM MOPS pH 7.0, 0.2 mM EDTA, 200 μM LRRASLG (Kemptide), 10 mM MgAcetate and [γ^33P-ATP]. The reaction was initiated by the addition of the MgATP mix. After incubation for 40 minute at room temperature, the reaction was stopped by addition of 5 μL of a 3% phosphoric acid solution. 10 μL of the reaction was then spotted onto a P30 filtermat and washed three times for 5 minutes in 50 mM phosphoric acid and once in methanol prior to drying and scintillation counting. Wells containing substrate but no kinase and wells containing a phosphopeptide control were used to set 0% and 100% phosphorylation value, repectively.
(§2) Also Kinase Hotspot™ kinase assay was used to test the compounds for IC50 or % inhibitions (Reaction Biology Corp.). Inhibitor IC50 values were determined by titration of compound at the optimal kinase concentration (Kinase EC50).

A further assay deals with T2, Aurora-A(h) (Homo sapiens, UniProt O14965).
T2 construct: purchased Millipore (KinaseProfiler Service) / Reaction Biology Corp. (Kinase Hotspot)
T2 sequence (O14965 1-403): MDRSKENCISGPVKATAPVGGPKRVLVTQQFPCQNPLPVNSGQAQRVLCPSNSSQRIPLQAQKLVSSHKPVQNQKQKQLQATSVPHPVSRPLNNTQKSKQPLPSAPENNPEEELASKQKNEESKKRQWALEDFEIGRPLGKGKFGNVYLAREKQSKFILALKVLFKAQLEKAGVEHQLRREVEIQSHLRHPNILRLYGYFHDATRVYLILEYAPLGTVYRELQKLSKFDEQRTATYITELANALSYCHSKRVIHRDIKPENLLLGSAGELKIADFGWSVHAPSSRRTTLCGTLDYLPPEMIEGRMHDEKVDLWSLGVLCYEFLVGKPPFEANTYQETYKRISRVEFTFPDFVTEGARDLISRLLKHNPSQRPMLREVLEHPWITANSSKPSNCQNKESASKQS
In words: Aurora-A kinase assay (KinaseProfiler / Kinase Hotspot). As to conditions: compound at 1 μM; read-out: % Inhibition @1 μM Auroro-A. Here is the method:
as §1, §2

In another assay the target is T3, Flt3 kinase (Homo sapiens, UniProt P36888).
T3 construct: purchased Millipore (KinaseProfiler Service) / Reaction Biology Corp. (Kinase Hotspot)
T3 sequence (P36888 27-993): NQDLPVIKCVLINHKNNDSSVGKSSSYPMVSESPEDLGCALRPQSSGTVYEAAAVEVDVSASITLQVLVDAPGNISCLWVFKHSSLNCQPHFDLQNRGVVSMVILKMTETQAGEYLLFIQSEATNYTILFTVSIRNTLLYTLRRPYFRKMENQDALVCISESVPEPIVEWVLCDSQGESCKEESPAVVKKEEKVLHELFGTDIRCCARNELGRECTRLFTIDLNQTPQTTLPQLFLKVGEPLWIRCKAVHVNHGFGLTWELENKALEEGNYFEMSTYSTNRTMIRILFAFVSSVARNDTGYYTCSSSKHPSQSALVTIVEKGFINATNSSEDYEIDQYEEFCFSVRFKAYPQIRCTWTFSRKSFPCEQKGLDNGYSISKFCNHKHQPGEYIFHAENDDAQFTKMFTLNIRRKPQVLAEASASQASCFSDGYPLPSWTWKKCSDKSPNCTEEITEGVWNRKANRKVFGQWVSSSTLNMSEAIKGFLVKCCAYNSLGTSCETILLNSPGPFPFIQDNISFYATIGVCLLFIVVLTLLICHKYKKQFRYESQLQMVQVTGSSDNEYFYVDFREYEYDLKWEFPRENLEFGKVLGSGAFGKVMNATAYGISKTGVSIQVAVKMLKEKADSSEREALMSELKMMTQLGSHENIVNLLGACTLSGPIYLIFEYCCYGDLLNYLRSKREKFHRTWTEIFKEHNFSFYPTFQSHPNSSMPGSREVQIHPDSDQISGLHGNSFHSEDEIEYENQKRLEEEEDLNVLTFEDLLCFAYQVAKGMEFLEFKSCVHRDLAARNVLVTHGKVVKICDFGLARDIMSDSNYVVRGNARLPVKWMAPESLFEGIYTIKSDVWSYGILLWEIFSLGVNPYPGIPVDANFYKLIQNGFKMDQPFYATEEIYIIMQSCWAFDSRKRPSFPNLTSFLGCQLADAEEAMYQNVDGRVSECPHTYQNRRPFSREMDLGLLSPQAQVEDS
The experiment in a line: Flt3 kinase assay (KinaseProfiler / Kinase Hotspot). As to conditions: compound at 1 μM. The procedure: as §1, §2

The target in the next assay is T4, Ret kinase (Homo sapiens, UniProt P07949).
T4 construct: purchased Millipore (KinaseProfiler Service) / Reaction Biology Corp. (Kinase Hotspot)
T4 sequence (P07949 29-1114): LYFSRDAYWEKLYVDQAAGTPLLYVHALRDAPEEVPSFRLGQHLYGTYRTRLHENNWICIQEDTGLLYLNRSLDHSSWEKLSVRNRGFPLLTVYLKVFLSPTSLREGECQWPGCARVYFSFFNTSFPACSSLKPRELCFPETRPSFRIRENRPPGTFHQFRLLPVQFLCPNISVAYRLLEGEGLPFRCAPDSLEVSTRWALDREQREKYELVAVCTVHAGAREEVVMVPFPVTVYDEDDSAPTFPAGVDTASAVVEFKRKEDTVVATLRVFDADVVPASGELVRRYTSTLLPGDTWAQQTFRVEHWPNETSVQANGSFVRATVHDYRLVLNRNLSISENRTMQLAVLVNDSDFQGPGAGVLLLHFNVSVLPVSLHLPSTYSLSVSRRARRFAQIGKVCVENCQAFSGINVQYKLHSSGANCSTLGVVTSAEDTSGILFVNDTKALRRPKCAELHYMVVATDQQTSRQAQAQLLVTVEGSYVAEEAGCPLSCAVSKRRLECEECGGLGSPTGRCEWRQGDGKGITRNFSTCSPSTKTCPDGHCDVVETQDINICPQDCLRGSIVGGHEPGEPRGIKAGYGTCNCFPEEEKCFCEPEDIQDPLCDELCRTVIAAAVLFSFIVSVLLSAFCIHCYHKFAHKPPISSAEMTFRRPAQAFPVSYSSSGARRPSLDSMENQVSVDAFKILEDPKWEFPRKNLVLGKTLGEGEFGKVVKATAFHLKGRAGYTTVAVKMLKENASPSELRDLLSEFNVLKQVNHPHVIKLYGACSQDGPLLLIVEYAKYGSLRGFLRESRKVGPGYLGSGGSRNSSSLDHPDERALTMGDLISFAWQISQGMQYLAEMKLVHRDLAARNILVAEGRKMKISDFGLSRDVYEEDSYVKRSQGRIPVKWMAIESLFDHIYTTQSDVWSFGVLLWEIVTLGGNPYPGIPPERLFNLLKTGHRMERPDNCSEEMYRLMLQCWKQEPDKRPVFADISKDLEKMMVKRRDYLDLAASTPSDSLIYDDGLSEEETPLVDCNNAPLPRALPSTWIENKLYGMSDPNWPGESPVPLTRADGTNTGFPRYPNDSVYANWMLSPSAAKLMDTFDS
In words: Ret kinase assay (KinaseProfiler / Kinase Hotspot). Conditions: compound at 1 μM. The procedure: as §1, §2

The next assay deals with T5, TrkA Kinase (Homo sapiens, UniProt P04629).
T5 construct: purchased Millipore (KinaseProfiler Service) / Reaction Biology Corp. (Kinase Hotspot)
T5 sequence (P04629 33-796): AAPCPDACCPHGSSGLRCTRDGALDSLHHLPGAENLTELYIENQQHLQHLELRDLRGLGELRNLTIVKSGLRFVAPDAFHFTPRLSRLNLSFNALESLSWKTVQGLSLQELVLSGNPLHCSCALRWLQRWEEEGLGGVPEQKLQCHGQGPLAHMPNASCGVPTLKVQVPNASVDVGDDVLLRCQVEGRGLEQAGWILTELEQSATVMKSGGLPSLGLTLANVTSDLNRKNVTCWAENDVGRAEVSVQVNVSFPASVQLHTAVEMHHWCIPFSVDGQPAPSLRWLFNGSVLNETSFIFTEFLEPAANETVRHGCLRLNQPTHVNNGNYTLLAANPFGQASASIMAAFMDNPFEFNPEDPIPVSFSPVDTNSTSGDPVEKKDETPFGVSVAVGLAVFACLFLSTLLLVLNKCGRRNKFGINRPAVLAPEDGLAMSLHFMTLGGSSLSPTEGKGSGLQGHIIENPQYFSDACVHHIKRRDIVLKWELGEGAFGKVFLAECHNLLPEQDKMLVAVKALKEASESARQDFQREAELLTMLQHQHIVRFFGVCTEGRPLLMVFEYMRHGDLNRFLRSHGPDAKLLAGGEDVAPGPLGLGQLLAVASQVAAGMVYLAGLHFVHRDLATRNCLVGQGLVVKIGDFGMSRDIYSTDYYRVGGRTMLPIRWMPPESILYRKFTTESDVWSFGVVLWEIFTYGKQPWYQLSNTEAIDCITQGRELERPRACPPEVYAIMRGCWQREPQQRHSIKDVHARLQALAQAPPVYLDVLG
In words: TrkA kinase assay (KinaseProfiler / Kinase Hotspot). As to conditions: compound at 1 μM. The procedure:
as §1, §2

T1 sequence (P12931 whole entry): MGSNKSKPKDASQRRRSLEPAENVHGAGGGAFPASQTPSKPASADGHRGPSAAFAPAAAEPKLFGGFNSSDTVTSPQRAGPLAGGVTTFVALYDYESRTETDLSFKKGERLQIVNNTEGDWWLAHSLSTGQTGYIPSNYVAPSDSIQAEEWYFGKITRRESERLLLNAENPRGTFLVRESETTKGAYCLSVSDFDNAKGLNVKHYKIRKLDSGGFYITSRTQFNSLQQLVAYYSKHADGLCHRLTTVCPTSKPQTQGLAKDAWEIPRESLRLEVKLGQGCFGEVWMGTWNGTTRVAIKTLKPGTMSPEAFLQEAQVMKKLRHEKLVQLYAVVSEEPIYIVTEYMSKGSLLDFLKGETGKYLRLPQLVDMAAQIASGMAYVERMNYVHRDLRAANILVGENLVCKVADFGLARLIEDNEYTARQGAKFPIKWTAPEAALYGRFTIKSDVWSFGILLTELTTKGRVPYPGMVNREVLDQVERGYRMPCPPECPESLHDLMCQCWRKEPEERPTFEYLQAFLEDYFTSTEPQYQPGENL

Consider `Cc1cc(Nc2nc(C#Cc3ccccc3)nc(N3CCN(C)CC3)n2)n[nH]1` [Example 3], for which the inhibition at 1 µM on c-Src kinase was less than 50%; on Aurora-A(h), 50 to 90%; at Flt3 kinase it was 50 to 90%; against Ret kinase it was 50 to 90%; on TrkA Kinase, greater than 90%.
Consider `Cc1cc(Nc2nc(/C=C\c3ccccc3)nc(N3CCN(C)CC3)n2)n[nH]1` [Example 4], for which the inhibition at 1 µM at c-Src kinase is less than 50%; on Aurora-A(h), 50 to 90%; at Flt3 kinase, 50 to 90%; at Ret kinase, less than 50%; at TrkA Kinase it was 50 to 90%.
In the case of `Cc1cc(Nc2nc(/C=C/c3ccccc3)nc(N3CCN(C)CC3)n2)n[nH]1` [Example 7], the inhibition at 1 µM at c-Src kinase was 50 to 90%; on Aurora-A(h) it was greater than 90%; against Flt3 kinase, greater than 90%; on Ret kinase it was 50 to 90%; on TrkA Kinase, greater than 90%.
Consider `Cc1cc(Nc2nc(/C=C/c3ccc(Cl)cc3)nc(N3CCN(C)CC3)n2)n[nH]1` [Example 8], for which the inhibition at 1 µM at c-Src kinase was 50 to 90%; at Aurora-A(h) it was 50 to 90%; against Flt3 kinase, greater than 90%; against Ret kinase, 50 to 90%; against TrkA Kinase it was greater than 90%.
Take `Cc1ccc(/C=C/c2nc(Nc3cc(C)[nH]n3)nc(N3CCN(C)CC3)n2)cc1` [Example 9]: the inhibition at 1 µM at c-Src kinase was less than 50%; on Aurora-A(h) it was 50 to 90%; against Flt3 kinase, 50 to 90%; at Ret kinase, 50 to 90%; on TrkA Kinase, greater than 90%.
For the molecule `Cc1cc(Nc2nc(/C=C/c3ccccc3Cl)nc(N3CCN(C)CC3)n2)n[nH]1` [Example 10], the inhibition at 1 µM is 50 to 90% on c-Src kinase; 50 to 90% on Aurora-A(h); greater than 90% against Flt3 kinase; less than 50% against Ret kinase; greater than 90% at TrkA Kinase.
With `Cc1cc(Nc2nc(/C=C/c3cccc(Cl)c3)nc(N3CCN(C)CC3)n2)n[nH]1` [Example 11], the inhibition at 1 µM on c-Src kinase was 50 to 90%; on Aurora-A(h), 50 to 90%; on Flt3 kinase, greater than 90%; on Ret kinase it was less than 50%; on TrkA Kinase, greater than 90%.
Regarding `Cc1cc(Nc2nc(/C=C/c3nccs3)nc(N3CCN(C)CC3)n2)n[nH]1` [Example 12], the inhibition at 1 µM on c-Src kinase was 50 to 90%; on Aurora-A(h), 50 to 90%; against Flt3 kinase, greater than 90%; against Ret kinase it was less than 50%; against TrkA Kinase, 50 to 90%.
`Cc1cnc(Nc2nc(/C=C/c3ccccc3)nc(N3CCN(C)CC3)n2)s1` [Example 17]: the inhibition at 1 µM was 50 to 90% at c-Src kinase; 50 to 90% on Aurora-A(h); greater than 90% against Flt3 kinase; less than 50% against Ret kinase; greater than 90% on TrkA Kinase.
For the molecule `CN1CCN(c2nc(/C=C/c3ccccc3)nc(Nc3cc(-c4ccccc4)[nH]n3)n2)CC1` [Example 18], the inhibition at 1 µM was 50 to 90% at c-Src kinase; 50 to 90% on Aurora-A(h); greater than 90% against Flt3 kinase; 50 to 90% against Ret kinase; greater than 90% at TrkA Kinase.
On to `C/C=C/c1cc(Nc2nc(/C=C/c3ccccc3)nc(N3CCN(C)CC3)n2)n[nH]1` [Example 19], for which the inhibition at 1 µM on c-Src kinase is greater than 90%; at Aurora-A(h) it was 50 to 90%; against Flt3 kinase, 50 to 90%; at Ret kinase, 50 to 90%; against TrkA Kinase, greater than 90%.

For the origin of these results see patent US20120178758A1, “STYRYL-TRIAZINE DERIVATIVES AND THEIR THERAPEUTICAL APPLICATIONS” (CALIFORNIA CAPITAL EQUITY, LLC, priority 2009, published 2012).
